Key:
[1] = target: T1, Serine/threonine-protein kinase VRK1 (Homo sapiens) (UniProt Q99986); experiment: VRK1 SGC Tm panel (DSF); conditions: for ΔTm: Compound concentration 10.0 uM
T1 sequence (whole entry): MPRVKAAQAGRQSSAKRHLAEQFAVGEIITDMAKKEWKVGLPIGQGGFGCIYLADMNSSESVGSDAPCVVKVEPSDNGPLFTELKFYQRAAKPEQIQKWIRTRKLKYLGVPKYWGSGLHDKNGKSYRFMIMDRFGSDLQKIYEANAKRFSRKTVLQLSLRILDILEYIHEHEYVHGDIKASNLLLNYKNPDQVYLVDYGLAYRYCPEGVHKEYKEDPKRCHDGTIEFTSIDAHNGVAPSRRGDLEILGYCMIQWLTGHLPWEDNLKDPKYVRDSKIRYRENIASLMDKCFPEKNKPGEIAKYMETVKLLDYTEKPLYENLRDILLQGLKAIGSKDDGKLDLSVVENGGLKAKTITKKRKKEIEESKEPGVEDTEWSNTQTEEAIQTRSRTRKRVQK

[2] = target: Mitogen-activated protein kinase 9 (Homo sapiens) (UniProt P45984); experiment: MAPK9 SGC Tm panel (DSF); conditions: for ΔTm: Compound concentration 10.0 uM
Mitogen-activated protein kinase 9 (Homo sapiens), sequence (P45984 whole entry, looked up): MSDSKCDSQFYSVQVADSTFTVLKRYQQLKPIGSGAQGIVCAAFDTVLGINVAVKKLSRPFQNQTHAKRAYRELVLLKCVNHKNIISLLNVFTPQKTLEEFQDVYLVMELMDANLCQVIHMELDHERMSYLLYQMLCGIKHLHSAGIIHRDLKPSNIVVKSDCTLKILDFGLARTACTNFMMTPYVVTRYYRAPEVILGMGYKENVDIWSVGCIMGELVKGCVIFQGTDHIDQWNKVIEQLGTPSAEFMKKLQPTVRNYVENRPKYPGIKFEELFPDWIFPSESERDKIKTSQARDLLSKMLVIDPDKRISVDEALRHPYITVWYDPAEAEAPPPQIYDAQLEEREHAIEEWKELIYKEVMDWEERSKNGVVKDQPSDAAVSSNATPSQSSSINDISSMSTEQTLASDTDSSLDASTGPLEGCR

[3] = target: STE20-like serine/threonine-protein kinase (Homo sapiens) (UniProt Q9H2G2); experiment: SLK SGC Tm panel (DSF); conditions: for ΔTm: Compound concentration 10.0 uM
STE20-like serine/threonine-protein kinase (Homo sapiens), sequence (Q9H2G2 whole entry, looked up): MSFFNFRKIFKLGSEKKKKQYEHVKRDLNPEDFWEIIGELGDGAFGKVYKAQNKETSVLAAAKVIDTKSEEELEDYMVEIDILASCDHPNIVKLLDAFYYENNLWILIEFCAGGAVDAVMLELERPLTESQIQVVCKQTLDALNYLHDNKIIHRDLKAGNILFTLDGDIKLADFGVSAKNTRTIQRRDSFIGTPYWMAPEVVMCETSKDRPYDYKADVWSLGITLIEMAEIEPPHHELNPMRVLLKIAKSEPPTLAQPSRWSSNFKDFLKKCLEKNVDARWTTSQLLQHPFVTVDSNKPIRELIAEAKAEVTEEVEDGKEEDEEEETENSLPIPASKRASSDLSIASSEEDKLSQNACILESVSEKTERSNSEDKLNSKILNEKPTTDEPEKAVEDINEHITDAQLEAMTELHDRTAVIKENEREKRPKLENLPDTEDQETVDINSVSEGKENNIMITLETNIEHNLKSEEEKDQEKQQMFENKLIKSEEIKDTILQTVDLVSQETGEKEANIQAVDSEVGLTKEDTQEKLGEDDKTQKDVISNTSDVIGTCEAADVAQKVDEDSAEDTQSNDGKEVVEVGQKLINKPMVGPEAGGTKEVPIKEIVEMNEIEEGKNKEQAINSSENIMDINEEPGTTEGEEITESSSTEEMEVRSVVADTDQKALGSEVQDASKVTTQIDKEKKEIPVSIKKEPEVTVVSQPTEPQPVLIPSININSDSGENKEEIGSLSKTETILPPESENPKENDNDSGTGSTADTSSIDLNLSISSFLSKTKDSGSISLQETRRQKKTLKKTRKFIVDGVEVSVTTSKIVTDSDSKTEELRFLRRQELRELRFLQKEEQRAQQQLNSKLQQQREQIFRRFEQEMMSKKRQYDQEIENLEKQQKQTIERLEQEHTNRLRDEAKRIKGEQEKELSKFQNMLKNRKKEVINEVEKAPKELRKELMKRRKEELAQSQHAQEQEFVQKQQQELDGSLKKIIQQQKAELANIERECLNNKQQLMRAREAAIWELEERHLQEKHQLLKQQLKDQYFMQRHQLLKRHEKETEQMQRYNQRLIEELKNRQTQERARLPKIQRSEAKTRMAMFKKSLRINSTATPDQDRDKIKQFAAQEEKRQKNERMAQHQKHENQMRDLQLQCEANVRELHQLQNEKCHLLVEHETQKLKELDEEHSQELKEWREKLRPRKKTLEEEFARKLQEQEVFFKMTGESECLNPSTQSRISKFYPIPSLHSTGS

[4] = target: Serine/threonine-protein kinase 10 (Homo sapiens) (UniProt O94804); experiment: STK10 SGC Tm panel (DSF); conditions: for ΔTm: Compound concentration 10.0 uM
Serine/threonine-protein kinase 10 (Homo sapiens), sequence (O94804 whole entry, looked up): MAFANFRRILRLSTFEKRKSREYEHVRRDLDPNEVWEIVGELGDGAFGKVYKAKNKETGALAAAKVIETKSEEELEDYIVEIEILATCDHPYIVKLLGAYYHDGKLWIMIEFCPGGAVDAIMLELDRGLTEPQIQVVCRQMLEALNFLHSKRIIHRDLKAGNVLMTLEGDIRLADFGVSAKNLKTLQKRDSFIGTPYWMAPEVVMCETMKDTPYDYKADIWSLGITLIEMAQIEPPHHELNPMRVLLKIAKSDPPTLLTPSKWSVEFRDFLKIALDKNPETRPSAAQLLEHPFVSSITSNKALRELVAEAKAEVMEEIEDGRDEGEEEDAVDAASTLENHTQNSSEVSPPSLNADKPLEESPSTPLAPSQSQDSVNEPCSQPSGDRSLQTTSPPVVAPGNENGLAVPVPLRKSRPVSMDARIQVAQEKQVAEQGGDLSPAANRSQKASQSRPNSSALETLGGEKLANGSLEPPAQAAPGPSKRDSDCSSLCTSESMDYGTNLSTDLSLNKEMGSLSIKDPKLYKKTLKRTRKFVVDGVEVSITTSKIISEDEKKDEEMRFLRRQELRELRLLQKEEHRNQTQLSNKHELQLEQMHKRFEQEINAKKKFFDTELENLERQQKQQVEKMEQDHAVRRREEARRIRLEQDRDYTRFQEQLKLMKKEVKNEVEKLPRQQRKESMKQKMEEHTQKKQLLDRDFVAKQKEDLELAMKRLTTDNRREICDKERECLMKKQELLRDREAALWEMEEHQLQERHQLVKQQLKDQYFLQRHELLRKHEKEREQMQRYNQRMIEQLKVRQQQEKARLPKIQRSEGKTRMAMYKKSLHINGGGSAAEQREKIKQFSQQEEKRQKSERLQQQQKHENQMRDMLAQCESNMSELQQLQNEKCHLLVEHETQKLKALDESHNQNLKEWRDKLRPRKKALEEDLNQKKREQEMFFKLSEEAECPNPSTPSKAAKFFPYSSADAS

[5] = target: T2, Muscarinic acetylcholine receptor M1 (Homo sapiens) (UniProt P11229); conditions: Compound concentration 10.0 uM
T2 sequence (whole entry): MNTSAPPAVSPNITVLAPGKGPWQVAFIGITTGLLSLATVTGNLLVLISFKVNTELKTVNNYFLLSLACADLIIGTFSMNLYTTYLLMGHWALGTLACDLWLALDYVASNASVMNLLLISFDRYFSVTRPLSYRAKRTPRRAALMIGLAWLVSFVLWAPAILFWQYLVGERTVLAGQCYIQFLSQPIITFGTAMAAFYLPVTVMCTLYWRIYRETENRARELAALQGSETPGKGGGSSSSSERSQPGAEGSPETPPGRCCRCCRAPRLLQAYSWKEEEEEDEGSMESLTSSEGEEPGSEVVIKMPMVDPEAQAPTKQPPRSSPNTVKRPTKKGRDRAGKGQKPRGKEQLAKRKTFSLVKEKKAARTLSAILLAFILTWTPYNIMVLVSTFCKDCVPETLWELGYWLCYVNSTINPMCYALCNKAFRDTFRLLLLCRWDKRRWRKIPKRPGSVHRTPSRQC

[6] = target: Mu-type opioid receptor (Homo sapiens, UniProt P35372); conditions: Compound concentration 10.0 uM
Mu-type opioid receptor, sequence (P35372 whole entry): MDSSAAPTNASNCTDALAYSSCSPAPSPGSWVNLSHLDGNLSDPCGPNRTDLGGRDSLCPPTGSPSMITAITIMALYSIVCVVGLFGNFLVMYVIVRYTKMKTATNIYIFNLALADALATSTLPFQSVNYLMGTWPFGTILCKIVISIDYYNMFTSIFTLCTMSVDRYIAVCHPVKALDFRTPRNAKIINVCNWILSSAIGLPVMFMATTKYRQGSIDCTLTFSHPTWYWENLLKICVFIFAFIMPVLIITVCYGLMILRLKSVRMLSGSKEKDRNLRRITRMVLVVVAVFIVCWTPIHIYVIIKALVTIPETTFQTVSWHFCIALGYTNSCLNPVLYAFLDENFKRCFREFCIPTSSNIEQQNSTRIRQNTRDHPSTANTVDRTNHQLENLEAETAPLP

[7] = target: SRSF protein kinase 3 (Homo sapiens) (UniProt Q9UPE1); experiment: MSSK1 SGC Tm panel (DSF); conditions: for ΔTm: Compound concentration 10.0 uM
SRSF protein kinase 3 (Homo sapiens), sequence (Q9UPE1 whole entry): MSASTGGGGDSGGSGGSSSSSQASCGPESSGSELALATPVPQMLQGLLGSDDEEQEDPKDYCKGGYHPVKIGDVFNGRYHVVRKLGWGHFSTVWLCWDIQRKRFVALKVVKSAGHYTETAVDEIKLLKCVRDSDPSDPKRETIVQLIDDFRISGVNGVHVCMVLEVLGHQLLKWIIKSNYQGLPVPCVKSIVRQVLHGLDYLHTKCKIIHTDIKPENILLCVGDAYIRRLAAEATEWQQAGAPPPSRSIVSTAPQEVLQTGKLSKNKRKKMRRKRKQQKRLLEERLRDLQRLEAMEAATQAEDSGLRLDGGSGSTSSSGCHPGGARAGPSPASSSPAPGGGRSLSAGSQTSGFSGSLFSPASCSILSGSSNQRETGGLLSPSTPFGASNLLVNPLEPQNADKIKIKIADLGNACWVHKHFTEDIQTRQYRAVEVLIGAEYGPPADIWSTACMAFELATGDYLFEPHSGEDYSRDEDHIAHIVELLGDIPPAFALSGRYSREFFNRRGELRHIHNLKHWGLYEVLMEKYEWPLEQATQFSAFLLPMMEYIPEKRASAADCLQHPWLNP

[8] = target: T3, Serine/threonine-protein kinase 17A (Homo sapiens) (UniProt Q9UEE5); experiment: STK17A SGC Tm panel (DSF); conditions: for ΔTm: Compound concentration 10.0 uM
T3 sequence (whole entry): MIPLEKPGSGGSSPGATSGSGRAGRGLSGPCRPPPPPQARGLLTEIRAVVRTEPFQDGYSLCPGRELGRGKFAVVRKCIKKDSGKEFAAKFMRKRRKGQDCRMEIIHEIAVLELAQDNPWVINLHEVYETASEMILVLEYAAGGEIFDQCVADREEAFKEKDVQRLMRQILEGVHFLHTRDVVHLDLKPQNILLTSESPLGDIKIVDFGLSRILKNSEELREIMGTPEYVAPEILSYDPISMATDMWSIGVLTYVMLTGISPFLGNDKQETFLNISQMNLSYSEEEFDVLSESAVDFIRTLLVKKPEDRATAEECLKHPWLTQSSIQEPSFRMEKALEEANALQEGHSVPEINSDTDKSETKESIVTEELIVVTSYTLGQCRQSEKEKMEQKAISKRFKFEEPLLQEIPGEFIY

[9] = target: T4, Calcium/calmodulin-dependent protein kinase type IV (Homo sapiens) (UniProt Q16566); experiment: CAMK4 SGC Tm panel (DSF); conditions: for ΔTm: Compound concentration 10.0 uM
T4 sequence (whole entry): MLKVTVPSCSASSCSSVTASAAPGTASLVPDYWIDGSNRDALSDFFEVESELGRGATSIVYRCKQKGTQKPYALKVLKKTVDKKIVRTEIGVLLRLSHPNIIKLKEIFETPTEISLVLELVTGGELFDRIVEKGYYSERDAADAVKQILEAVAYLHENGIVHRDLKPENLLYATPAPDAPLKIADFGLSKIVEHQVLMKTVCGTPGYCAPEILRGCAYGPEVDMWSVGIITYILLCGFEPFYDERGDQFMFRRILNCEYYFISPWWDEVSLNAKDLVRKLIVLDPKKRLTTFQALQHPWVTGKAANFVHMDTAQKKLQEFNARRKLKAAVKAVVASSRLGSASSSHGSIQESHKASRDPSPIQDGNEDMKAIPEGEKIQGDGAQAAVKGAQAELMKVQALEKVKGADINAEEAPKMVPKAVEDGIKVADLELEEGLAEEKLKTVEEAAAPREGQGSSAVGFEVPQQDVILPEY

[10] = species: Rattus norvegicus; conditions: Compound concentration 10.0 uM
[11] = target: Sigma intracellular receptor 2 (Homo sapiens) (UniProt Q5BJF2); conditions: Compound concentration 10.0 uM
Sigma intracellular receptor 2 (Homo sapiens), sequence (Q5BJF2 whole entry): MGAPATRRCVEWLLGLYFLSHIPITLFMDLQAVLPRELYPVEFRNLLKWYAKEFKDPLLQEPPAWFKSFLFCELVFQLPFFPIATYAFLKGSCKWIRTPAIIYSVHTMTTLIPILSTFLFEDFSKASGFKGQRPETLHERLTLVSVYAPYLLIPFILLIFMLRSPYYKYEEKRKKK

[12] = target: T5, Ferrochelatase, mitochondrial (Homo sapiens) (UniProt P22830); experiment: FECHHS SGC Tm panel (DSF); conditions: for ΔTm: Compound concentration 10.0 uM
T5 sequence (whole entry): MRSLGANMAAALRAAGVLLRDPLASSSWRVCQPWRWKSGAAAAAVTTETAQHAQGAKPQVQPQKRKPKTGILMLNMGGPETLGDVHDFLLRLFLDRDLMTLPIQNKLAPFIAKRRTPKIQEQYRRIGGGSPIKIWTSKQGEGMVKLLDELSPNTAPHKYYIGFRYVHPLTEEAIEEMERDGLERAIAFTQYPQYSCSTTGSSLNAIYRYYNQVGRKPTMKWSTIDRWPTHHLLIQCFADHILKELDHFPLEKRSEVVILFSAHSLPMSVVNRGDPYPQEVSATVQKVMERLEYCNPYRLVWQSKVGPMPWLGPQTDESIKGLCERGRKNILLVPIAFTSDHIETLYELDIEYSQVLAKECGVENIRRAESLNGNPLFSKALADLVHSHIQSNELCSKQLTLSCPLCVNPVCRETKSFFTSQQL

[13] = target: Mitogen-activated protein kinase 1 (Homo sapiens) (UniProt P28482); experiment: MAPK1 SGC Tm panel (DSF); conditions: for ΔTm: Compound concentration 10.0 uM
Mitogen-activated protein kinase 1 (Homo sapiens), sequence (P28482 whole entry): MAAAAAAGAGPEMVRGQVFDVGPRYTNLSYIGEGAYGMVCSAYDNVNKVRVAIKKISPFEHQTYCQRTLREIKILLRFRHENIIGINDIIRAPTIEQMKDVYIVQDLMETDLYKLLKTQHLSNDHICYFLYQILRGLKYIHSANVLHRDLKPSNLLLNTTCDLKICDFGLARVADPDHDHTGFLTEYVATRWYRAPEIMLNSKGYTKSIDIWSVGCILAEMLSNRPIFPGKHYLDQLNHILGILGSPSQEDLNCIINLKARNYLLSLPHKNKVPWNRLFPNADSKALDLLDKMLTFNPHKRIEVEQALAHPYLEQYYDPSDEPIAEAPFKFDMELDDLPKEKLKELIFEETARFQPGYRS

| SMILES | delta Tm Staurosporine positive control [1] | ΔTm [1] | delta Tm Staurosporine positive control [2] | ΔTm [2] | delta Tm Staurosporine positive control [3] | ΔTm [3] | delta Tm Staurosporine positive control [4] | ΔTm [4] | inhibition [5] [%] | inhibition [6] [%] | delta Tm Staurosporine positive control [7] | ΔTm [7] | delta Tm Staurosporine positive control [8] | ΔTm [8] | delta Tm Staurosporine positive control [9] | ΔTm [9] | inhibition [10] [%] | inhibition [11] [%] | delta Tm Staurosporine positive control [12] | ΔTm [12] | further results |
| --- | --- | --- | --- | --- | --- | --- | --- | --- | --- | --- | --- | --- | --- | --- | --- | --- | --- | --- | --- | --- | --- |
| CCC[C@@H]1CNCc2c1[nH]c(=O)c(C#N)c2N1CCC2(CC1)CC2 | 2.35 | -0.315 | 3.03 | -0.0844 | 15.4 | -1.06 | 22.2 | -2.3 | -0.37 | 57.9 | 4.52 | -0.164 | 11.8 | -1.01 | 8.45 | -1.12 | 0.4 | -4.19 | 2.89 | -1.34 | delta Tm Staurosporine positive control [13]: 3.56; ΔTm [13]: -0.19 |
| CCC[C@H]1CNCc2c1[nH]c(=O)c(C#N)c2N1CCC2(CC1)CC2 | 2.35 | -0.355 | 3.03 | -0.605 | 15.4 | -0.579 | 22.2 | -2.2 | 0.28 | 26.2 | 4.52 | -0.144 | 11.8 | -1.05 | 8.45 | -0.566 | 10.4 | -5 | 2.89 | -1.08 | delta Tm Staurosporine positive control [13]: 3.56; ΔTm [13]: -0.182 |

— ChEMBL document CHEMBL5303765, “Data for DCP probe BAY-7081” (2023)
